The target in the assay is T1, chimeric human H3 receptor (Homo sapiens, UniProt Q9Y5N1).
T1 construct: rat Galpha-i2 (Gnai2, rat); made in house; host or cells: Sf9 insect cells (baculovirus); P2 membranes
The experiment in a line: Chimeric human H3 receptor screening GTP binding assay (inhibition of histamine-stimulated GTP-gamma35S binding, Example 8). Type of assay: biochemical. In short, it runs like this: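 Compound tested at 4 μM against 1 μM histamine stimulation; 125 pM GTP-gamma35S binding measured by filtration and scintillation after 60 min at room temperature. Membranes from Sf9 cells expressing chimeric human H3 plus G-protein subunits, in Tris pH 7.4/NaCl/MgCl2/GDP buffer; values are % inhibition after nonspecific subtraction.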
On the technique in general: Binding of GTPγS marks nucleotide exchange on a G protein.

[1] abbreviates: symbol ! in Ki, test compound 4 μM, 1 μM histamine, read-out: percent inhibition of agonist-induced GTP-gammaS binding to H3.
Where [2] appears, read: 1 h, assay of Example 8, symbol "!" in column headed Ki, read-out: percent inhibition of agonist-induced GTP-gammaS binding to H3.
The mark [3] stands for this setting: 1 h, assay described in Example 8, symbol "!" in column headed Ki, read-out: Ki ("!": percent inhibition of agonist-induced GTP-gammaS binding to H3).

Where two headings read alike, the source gives them in different places.

T1 sequence (Q9Y5N1 with tags, fused parts or gaps): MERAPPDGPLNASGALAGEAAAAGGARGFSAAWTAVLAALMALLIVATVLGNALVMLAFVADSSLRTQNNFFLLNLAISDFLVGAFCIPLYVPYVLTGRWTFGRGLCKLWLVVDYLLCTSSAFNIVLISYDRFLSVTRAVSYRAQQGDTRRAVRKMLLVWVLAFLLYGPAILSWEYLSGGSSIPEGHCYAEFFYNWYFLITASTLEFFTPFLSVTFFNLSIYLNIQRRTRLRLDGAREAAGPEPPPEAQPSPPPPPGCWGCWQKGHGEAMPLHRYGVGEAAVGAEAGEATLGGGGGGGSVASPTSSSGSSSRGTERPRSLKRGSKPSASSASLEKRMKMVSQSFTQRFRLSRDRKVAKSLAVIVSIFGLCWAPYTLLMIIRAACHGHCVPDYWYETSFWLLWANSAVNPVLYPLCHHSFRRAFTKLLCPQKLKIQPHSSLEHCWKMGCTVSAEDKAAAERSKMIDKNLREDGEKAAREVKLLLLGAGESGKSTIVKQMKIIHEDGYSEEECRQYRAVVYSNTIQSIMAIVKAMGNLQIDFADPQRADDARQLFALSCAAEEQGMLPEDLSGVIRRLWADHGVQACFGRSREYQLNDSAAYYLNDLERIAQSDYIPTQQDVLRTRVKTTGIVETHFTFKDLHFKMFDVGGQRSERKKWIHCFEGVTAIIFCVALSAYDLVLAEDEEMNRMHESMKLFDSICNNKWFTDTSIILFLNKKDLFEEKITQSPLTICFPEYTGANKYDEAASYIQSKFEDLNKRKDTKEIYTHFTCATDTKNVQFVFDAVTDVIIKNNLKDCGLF

As for `O=C(C1CCCCC1)N1CCc2c(ncnc2N2CCN(C3CCC3)CC2)C1` [Compound 55, 4-(4-cyclobutylpiperazin-1-yl)-7-(cyclohexylcarbonyl)-5,6,7,8-tetrahydropyrido[3,4-d]pyrimidine], under setting [1], the inhibition (commonly the drop in the measured response relative to a control, in per cent) at 4 µM was no less than 90%.

With `O=C(Cc1c(F)cccc1Cl)N1CCc2cnc(N3CCN(C4CCC4)CC3)nc2CC1` [Compound 298, 7-[(2-chloro-6-fluorophenyl)acetyl]-2-(4-cyclobutylpiperazin-1-yl)-6,7,8,9-tetrahydro-5H-pyrimido[4,5-d]azepine], the inhibition at 4 µM under setting [2] was no less than 90%.

For `O=C(/C=C/c1ccccc1)N1CCc2cnc(N3CCN(C4CCC4)CC3)nc2CC1` [Compound 225, 2-(4-cyclobutylpiperazin-1-yl)-7-[(2E)-3-phenylprop-2-enoyl]-6,7,8,9-tetrahydro-5H-pyrimido[4,5-d]azepine], the inhibition at 4 µM under setting [2] was no less than 90%.

Take `COc1ccc(CN2CCc3ncnc(N4CCN(C5CCC5)CC4)c3CC2)c(OC)c1` [Compound 158, 4-(4-cyclobutylpiperazin-1-yl)-7-(2,4-dimethoxybenzyl)-6,7,8,9-tetrahydro-5H-pyrimido[4,5-d]azepine]: the inhibition at 4 µM under setting [1] is no less than 90%.

`O=C(CCC1CCCC1)N1CCc2c(ncnc2N2CCN(C3CCC3)CC2)C1` [Compound 49, 4-(4-cyclobutylpiperazin-1-yl)-7-(3-cyclopentylpropanoyl)-5,6,7,8-tetrahydropyrido[3,4-d]pyrimidine]: under setting [1], the inhibition at 4 µM is no less than 90%.

In the case of `O=C(Cc1cccc(OC(F)(F)F)c1)N1CCc2cnc(N3CCN(C4CCC4)CC3)nc2CC1` [Compound 279, 2-(4-cyclobutylpiperazin-1-yl)-7-{[3-(trifluoromethoxy)phenyl]acetyl}-6,7,8,9-tetrahydro-5H-pyrimido[4,5-d]azepine], the inhibition at 4 µM under setting [2] was no less than 90%.

For the compound `O=C(c1ccnc2ccccc12)N1CCc2cnc(N3CCN(C4CCC4)CC3)nc2CC1` [Compound 492, 2-(4-cyclobutylpiperazin-1-yl)-7-(quinolin-4-ylcarbonyl)-6,7,8,9-tetrahydro-5H-pyrimido[4,5-d]azepine], under setting [3], the inhibition at 4 µM is no less than 90%.

Regarding `COc1ccccc1CN1CCc2nc(N3CCN(C4CCC4)CC3)ncc2C1` [Compound 623, 2-(4-cyclobutylpiperazin-1-yl)-6-(2-methoxybenzyl)-5,6,7,8-tetrahydropyrido[4,3-d]pyrimidine], the inhibition at 4 µM under setting [1] is no less than 90%.

Take `COc1ccc(/C=C/C(=O)N2CCc3cnc(N4CCN(C5CCC5)CC4)nc3CC2)c(OC)c1OC` [Compound 571, 2-(4-cyclobutylpiperazin-1-yl)-7-[(2E)-3-(2,3,4-trimethoxyphenyl)prop-2-enoyl]-6,7,8,9-tetrahydro-5H-pyrimido[4,5-d]azepine]: under setting [3], the inhibition at 4 µM was no less than 90%.

For `Cc1ccc(CC(=O)N2CCc3cnc(N4CCN(C5CCC5)CC4)nc3CC2)cc1` [Compound 515, 2-(4-cyclobutylpiperazin-1-yl)-7-[(4-methylphenyl)acetyl]-6,7,8,9-tetrahydro-5H-pyrimido[4,5-d]azepine], the inhibition at 4 µM under setting [3] is no less than 90%.

For the compound `COc1ccc(OC)c(CN2CCc3cnc(N4CCN(C5CCC5)CC4)nc3CC2)c1` [Compound 261, 2-(4-cyclobutylpiperazin-1-yl)-7-(2,5-dimethoxybenzyl)-6,7,8,9-tetrahydro-5H-pyrimido[4,5-d]azepine], the inhibition at 4 µM under setting [2] was no less than 90%.

On to `O=C(CCC1CCCC1)N1CCc2cnc(N3CCN(C4CCC4)CC3)nc2CC1` [Compound 212, 2-(4-cyclobutylpiperazin-1-yl)-7-(3-cyclopentylpropanoyl)-6,7,8,9-tetrahydro-5H-pyrimido[4,5-d]azepine], for which the inhibition at 4 µM under setting [2] is no less than 90%.

Consider `COc1ccc(OC)c(CC(=O)N2CCc3cnc(N4CCN(C5CCC5)CC4)nc3CC2)c1` [Compound 308, 2-(4-cyclobutylpiperazin-1-yl)-7-[(2,5-dimethoxyphenyl)acetyl]-6,7,8,9-tetrahydro-5H-pyrimido[4,5-d]azepine], for which the inhibition at 4 µM under setting [2] is no less than 90%.

As to `CC(C)c1ccc(CN2CCc3ncnc(N4CCN(C5CCC5)CC4)c3CC2)cc1` [Compound 159, 4-(4-cyclobutylpiperazin-1-yl)-7-(4-isopropylbenzyl)-6,7,8,9-tetrahydro-5H-pyrimido[4,5-d]azepine], under setting [1], the inhibition at 4 µM is no less than 90%.

Turning to `CCCCCN1CCc2cnc(N3CCN(C4CCC4)CC3)nc2CC1` [Compound 249, 2-(4-cyclobutylpiperazin-1-yl)-7-pentyl-6,7,8,9-tetrahydro-5H-pyrimido[4,5-d]azepine], the inhibition at 4 µM under setting [2] was no less than 90%.

As for `Cc1ccc(C)c(/C=C/C(=O)N2CCc3cnc(N4CCN(C5CCC5)CC4)nc3CC2)c1` [Compound 577, 2-(4-cyclobutylpiperazin-1-yl)-7-[(2E)-3-(2,5-dimethylphenyl)prop-2-enoyl]-6,7,8,9-tetrahydro-5H-pyrimido[4,5-d]azepine], the inhibition at 4 µM under setting [3] was no less than 90%.

As for `O=C(c1ccsc1)N1CCc2cnc(N3CCN(C4CCC4)CC3)nc2CC1` [Compound 464, 2-(4-cyclobutylpiperazin-1-yl)-7-(3-thienylcarbonyl)-6,7,8,9-tetrahydro-5H-pyrimido[4,5-d]azepine], the inhibition at 4 µM under setting [3] was no less than 90%.

Consider `CCCCCCN1CCc2ncnc(N3CCN(C4CCC4)CC3)c2CC1` [Compound 165, 4-(4-cyclobutylpiperazin-1-yl)-7-hexyl-6,7,8,9-tetrahydro-5H-pyrimido[4,5-d]azepine], for which, under setting [1], the inhibition at 4 µM is no less than 90%.

Take `c1ccc2ncc(CN3CCc4c(ncnc4N4CCN(C5CCC5)CC4)C3)cc2c1` [Compound 73, 4-(4-cyclobutylpiperazin-1-yl)-7-(quinolin-3-ylmethyl)-5,6,7,8-tetrahydropyrido[3,4-d]pyrimidine]: the inhibition at 4 µM under setting [1] was no less than 90%.

For `Cn1nc(C(F)(F)F)cc1-c1ccc(C(=O)N2CCc3cnc(N4CCN(C5CCC5)CC4)nc3CC2)s1` [Compound 460, 2-(4-cyclobutylpiperazin-1-yl)-7-({5-[1-methyl-3-(trifluoromethyl)-1H-pyrazol-5-yl]-2-thienyl}carbonyl)-6,7,8,9-tetrahydro-5H-pyrimido[4,5-d]azepine], under setting [3], the inhibition at 4 µM was no less than 90%.

As for `CCN(CC)CCCN1CCN(c2ncnc3c2CCN(Cc2ccccc2)C3)CC1` [Compound 20, 3-[4-(7-benzyl-5,6,7,8-tetrahydropyrido[3,4-d]pyrimidin-4-yl)piperazin-1-yl]-N,N-diethylpropan-1-amine], the inhibition at 4 µM under setting [1] was no less than 90%.

In the case of `O=C(c1ccccc1CCc1ccccc1)N1CCc2cnc(N3CCN(C4CCC4)CC3)nc2CC1` [Compound 411, 2-(4-cyclobutylpiperazin-1-yl)-7-[2-(2-phenylethyl)benzoyl]-6,7,8,9-tetrahydro-5H-pyrimido[4,5-d]azepine], the inhibition at 4 µM under setting [3] is no less than 90%.

Consider `O=C(c1cc2ccccc2s1)N1CCc2cnc(N3CCN(C4CCC4)CC3)nc2CC1` [Compound 455, 7-(1-benzothien-2-ylcarbonyl)-2-(4-cyclobutylpiperazin-1-yl)-6,7,8,9-tetrahydro-5H-pyrimido[4,5-d]azepine], for which the inhibition at 4 µM under setting [3] is no less than 90%.

On to `COc1cccc(OC)c1C(=O)N1CCc2cnc(N3CCN(C4CCC4)CC3)nc2CC1` [Compound 424, 2-(4-cyclobutylpiperazin-1-yl)-7-(2,6-dimethoxybenzoyl)-6,7,8,9-tetrahydro-5H-pyrimido[4,5-d]azepine], for which, under setting [3], the inhibition at 4 µM is no less than 90%.

Turning to `COc1cc(OC)c(OC)cc1/C=C/C(=O)N1CCc2cnc(N3CCN(C4CCC4)CC3)nc2CC1` [Compound 575, 2-(4-cyclobutylpiperazin-1-yl)-7-[(2E)-3-(2,4,5-trimethoxyphenyl)prop-2-enoyl]-6,7,8,9-tetrahydro-5H-pyrimido[4,5-d]azepine], the inhibition at 4 µM under setting [3] was no less than 90%.

For the compound `O=C(Cc1ccccc1)N1CCc2cnc(N3CCN(C4CCC4)CC3)nc2CC1` [Compound 213, 2-(4-cyclobutylpiperazin-1-yl)-7-(phenylacetyl)-6,7,8,9-tetrahydro-5H-pyrimido[4,5-d]azepine], the inhibition at 4 µM under setting [2] was no less than 90%.

As for `COc1ccc(Cl)c(OC)c1C(=O)N1CCc2cnc(N3CCN(C4CCC4)CC3)nc2CC1` [Compound 426, 7-(3-chloro-2,6-dimethoxybenzoyl)-2-(4-cyclobutylpiperazin-1-yl)-6,7,8,9-tetrahydro-5H-pyrimido[4,5-d]azepine], under setting [3], the inhibition at 4 µM was no less than 90%.

For the compound `Cc1ncccc1C(=O)N1CCc2c(ncnc2N2CCN(C3CCC3)CC2)C1` [Compound 38, 4-(4-cyclobutylpiperazin-1-yl)-7-[(2-methylpyridin-3-yl)carbonyl]-5,6,7,8-tetrahydropyrido[3,4-d]pyrimidine], the inhibition at 4 µM under setting [1] was no less than 90%.

For `c1ccc2c(CN3CCc4cnc(N5CCN(C6CCC6)CC5)nc4CC3)ccnc2c1` [Compound 236, 2-(4-cyclobutylpiperazin-1-yl)-7-(quinolin-4-ylmethyl)-6,7,8,9-tetrahydro-5H-pyrimido[4,5-d]azepine], under setting [2], the inhibition at 4 µM is no less than 90%.

As for `COc1ccccc1CN1CCc2cnc(N3CCN(C4CCC4)CC3)nc2CC1` [Compound 242, 2-(4-cyclobutylpiperazin-1-yl)-7-(2-methoxybenzyl)-6,7,8,9-tetrahydro-5H-pyrimido[4,5-d]azepine], the inhibition at 4 µM under setting [2] is no less than 90%.

Consider `COc1ccc(CN2CCc3nc(N4CCN(C5CCC5)CC4)ncc3C2)c(OC)c1` [Compound 624, 2-(4-cyclobutylpiperazin-1-yl)-6-(2,4-dimethoxybenzyl)-5,6,7,8-tetrahydropyrido[4,3-d]pyrimidine], for which, under setting [1], the inhibition at 4 µM was no less than 90%.

For the compound `Cc1cc(CN2CCc3nc(N4CCN(C5CCC5)CC4)ncc3C2)n(C)n1` [Compound 622, 2-(4-cyclobutylpiperazin-1-yl)-6-[(1,3-dimethyl-1H-pyrazol-5-yl)methyl]-5,6,7,8-tetrahydropyrido[4,3-d]pyrimidine], the inhibition at 4 µM under setting [1] was no less than 90%.
